Assay results published in US11931343B2 (ARCUS BIOSCIENCES, INC., priority 2018, dated 2024).

Target: T1, human CD73 (Homo sapiens, UniProt P21589)
T1 sequence (P21589 27-549): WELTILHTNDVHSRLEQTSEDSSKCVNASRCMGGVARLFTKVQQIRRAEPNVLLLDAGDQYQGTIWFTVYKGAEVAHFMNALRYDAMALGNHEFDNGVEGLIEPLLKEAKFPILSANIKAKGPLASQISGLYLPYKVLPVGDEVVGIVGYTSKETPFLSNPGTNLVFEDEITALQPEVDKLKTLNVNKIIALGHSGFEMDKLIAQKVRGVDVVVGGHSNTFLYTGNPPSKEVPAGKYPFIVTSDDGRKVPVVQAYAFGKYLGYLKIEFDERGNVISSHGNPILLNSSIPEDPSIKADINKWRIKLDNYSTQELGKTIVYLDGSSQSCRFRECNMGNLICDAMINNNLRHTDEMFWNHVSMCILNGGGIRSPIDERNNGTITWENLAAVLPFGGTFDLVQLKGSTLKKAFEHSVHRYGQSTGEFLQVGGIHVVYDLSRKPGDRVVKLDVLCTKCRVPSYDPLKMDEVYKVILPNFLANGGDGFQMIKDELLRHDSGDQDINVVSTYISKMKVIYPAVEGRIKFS
Experiment: Inhibition of Ecto-5′-nucleotidase (CD73) activity in CHO-CD73 cells, phosphate release from AMP
Type: cell-based
Settings: CHO-K1 cells stably transfected with human CD73; 25 μM AMP; 50 minutes, 37° C.; read-out: Potency: CD73 IC50

SMILES: N#Cc1ccc(Cn2nccc2-c2cc(F)c3nnn(-c4cc5[nH]ncc5cc4F)c3c2)cc1 [Example 144]
- IC50: < 0.1 µM

SMILES: N#Cc1ccc(Cn2nccc2-c2cc(Cl)c3nnn(-c4ccnc(N)c4)c3c2)nc1 [Example 145]
- IC50: > 1 µM

SMILES: N#Cc1ccc(Cn2nccc2-c2cc3c(cn2)ncn3-c2ccc3cn[nH]c3c2)cc1 [Example 146]
- IC50: > 1 µM

SMILES: N#Cc1ccc(Cn2nccc2-c2cc3c(cn2)cnn3-c2ccc3cn[nH]c3c2)cc1 [Example 147]
- IC50: > 1 µM

SMILES: Clc1ccc(Cn2nccc2-c2cc3c(cn2)cnn3-c2ccc3cn[nH]c3c2)nc1 [Example 149]
- IC50: > 1 µM

SMILES: N#Cc1ccc(Cn2nccc2-c2cc3c(cc2Cl)nnn3-c2ccc3cn[nH]c3c2)cc1 [Example 150]
- IC50: < 0.1 µM

SMILES: N#Cc1ccc(Cn2nccc2-c2cc3c(cc2Cl)nnn3-c2ccc3cn[nH]c3c2)cc1 [Example 151]
- IC50: 0.1 to 1 µM

SMILES: N#Cc1ccc(Cn2nccc2-c2cnc3cnn(-c4ccc5cn[nH]c5c4)c3c2)cc1 [Example 152]
- IC50: > 1 µM

SMILES: O=c1[nH]c2ccc(-n3ncc4cnc(-c5ccnn5Cc5ccc(Cl)cn5)cc43)cc2[nH]1 [Example 153]
- IC50: > 1 µM

SMILES: N#Cc1ccc(Cn2nccc2-c2cc3c(cn2)nnn3-c2ccc3[nH]c(=O)[nH]c3c2)cc1 [Example 154]
- IC50: 0.1 to 1 µM

SMILES: N#Cc1ccc(Cn2nccc2-c2cc(F)c3nnn(-c4ccc5c(c4)NC(=O)C5)c3c2)cc1 [Example 156]
- IC50: > 1 µM

SMILES: N#Cc1ccc(Cn2nccc2-c2ccc3nnn(-c4ccc5[nH]c(=O)[nH]c5c4)c3c2)cc1 [Example 157]
- IC50: 0.1 to 1 µM

SMILES: O=c1[nH]c2ccc(-n3nnc4ncc(-c5ccnn5Cc5ccc(Cl)cc5Cl)cc43)cc2[nH]1 [Example 158]
- IC50: 0.1 to 1 µM

SMILES: O=c1[nH]c2cc(-n3nnc4c(F)cc(-c5ccnn5Cc5ccc(Cl)cc5Cl)cc43)ccc2o1 [Example 159]
- IC50: > 1 µM

SMILES: Nc1cc(-n2nnc3c(F)cc(-c4ccnn4Cc4ccc(Cl)cn4)cc32)ccc1O [Example 160]
- IC50: > 1 µM

SMILES: O=c1[nH]c2cc(-n3nnc4c(F)cc(-c5ccnn5Cc5ccc(Cl)cn5)cc43)ccc2o1 [Example 161]
- IC50: > 1 µM

SMILES: Nc1cccc(-n2nnc3c(Cl)cc(-c4ccnn4Cc4ccc(Cl)cc4Cl)cc32)c1 [Example 162]
- IC50: > 1 µM

SMILES: Clc1ccc(Cn2nccc2-c2cnc3cnn(-c4ccc5cn[nH]c5c4)c3c2)c(Cl)c1 [Example 163]
- IC50: 0.1 to 1 µM

SMILES: Clc1ccc(Cn2nccc2-c2cnc3cnn(-c4ccc5cn[nH]c5c4)c3c2)nc1 [Example 164]
- IC50: 0.1 to 1 µM

SMILES: O=c1[nH]c2ccc(-n3nnc4cnc(-c5ccnn5Cc5ccc(Cl)cn5)cc43)cc2[nH]1 [Example 165]
- IC50: 0.1 to 1 µM

SMILES: N#Cc1ccc(Cn2nccc2-c2cc(F)c3nnn(-c4ccc5oc(=O)[nH]c5c4)c3c2)cc1 [Example 166]
- IC50: > 1 µM

SMILES: Cc1nc(-c2ccnn2Cc2ccc(C#N)cc2)cc2c1nnn2-c1ccc2cn[nH]c2c1 [Example 169]
- IC50: 0.1 to 1 µM

SMILES: O=c1[nH]c2ccc(-n3nnc4c(F)cc(-c5ccnn5Cc5ccc(Cl)cc5Cl)cc43)cc2[nH]1 [Example 170]
- IC50: 0.1 to 1 µM

SMILES: O=c1[nH]c2ccc(-n3nnc4c(F)cc(-c5ccnn5Cc5ccc(Cl)cn5)cc43)cc2[nH]1 [Example 171]
- IC50: 0.1 to 1 µM

SMILES: Fc1ccc(Cn2nccc2-c2cc(F)c3nnn(-c4ccc5nc[nH]c5c4)c3c2)nc1 [Example 172]
- IC50: > 1 µM

SMILES: O=c1[nH]c2ccc(-n3nnc4c(F)cc(-c5ccnn5Cc5ccc(F)cn5)cc43)cc2[nH]1 [Example 173]
- IC50: 0.1 to 1 µM

SMILES: O=c1[nH]c2ccc(-n3nnc4c(F)cc(-c5ccnn5Cc5ccc(F)cn5)cc43)cc2[nH]1 [Example 174]
- IC50: > 1 µM

SMILES: N#Cc1ccc(Cn2nccc2-c2cc(F)c3c(N)nn(-c4ccc5[nH]c(=O)[nH]c5c4)c3c2)cc1 [Example 175]
- IC50: > 1 µM

SMILES: N#Cc1ccc(Cn2nccc2-c2cc(F)c3nnn(-c4ccc5[nH]c(=O)[nH]c5c4)c3c2)nc1 [Example 176]
- IC50: 0.1 to 1 µM

SMILES: Fc1cc(-c2ccnn2Cc2ccc(-c3ncco3)cc2)cc2c1nnn2-c1ccc2cn[nH]c2c1 [Example 177]
- IC50: > 1 µM

SMILES: N#Cc1ccc(Cn2nccc2-c2cc3c(cn2)nnn3-c2ccc3[nH]c(=O)[nH]c3c2)nc1 [Example 178]
- IC50: 0.1 to 1 µM

SMILES: N#Cc1ccc(Cn2nccc2-c2cnc3cnn(-c4ccc5cn[nH]c5c4)c3c2)nc1 [Example 179]
- IC50: > 1 µM

SMILES: N#Cc1ccc(Cn2nccc2-c2cnc3cnn(-c4ccc5[nH]c(=O)[nH]c5c4)c3c2)cc1 [Example 180]
- IC50: > 1 µM

SMILES: Fc1ccc(Cn2nccc2-c2cnc3cnn(-c4ccc5cn[nH]c5c4)c3c2)nc1 [Example 181]
- IC50: > 1 µM

SMILES: CC(O)c1ccc(Cn2nccc2-c2cc(F)c3nnn(-c4ccc5[nH]c(=O)[nH]c5c4)c3c2)cc1 (stereo not drawn) [Example 182]
- IC50: > 1 µM

SMILES: CC(C)(O)c1ccc(Cn2nccc2-c2cc(F)c3nnn(-c4ccc5[nH]c(=O)[nH]c5c4)c3c2)cc1 [Example 183]
- IC50: > 1 µM

SMILES: O=C(Cn1nccc1-c1cc(Cl)c2nnn(-c3ccc4cn[nH]c4c3)c2c1)N1CCCCC1 [Example 184]
- IC50: > 1 µM

SMILES: CC(NC(=O)Cn1nccc1-c1cc(Cl)c2nnn(-c3ccc4cn[nH]c4c3)c2c1)c1ccccc1 (stereo not drawn) [Example 185]
- IC50: > 1 µM

SMILES: O=c1[nH]c2ccc(-n3nnc4c(Cl)cc(-c5ccnn5Cc5ccc(Cl)cc5Cl)cc43)cc2[nH]1 [Example 186]
- IC50: 0.1 to 1 µM

SMILES: CN(C(=O)Cn1nccc1-c1cc(Cl)c2nnn(-c3ccc4cn[nH]c4c3)c2c1)c1ccccc1 [Example 187]
- IC50: > 1 µM

SMILES: N#Cc1ccc(Cn2nccc2-c2cc(Cl)c3nnn(-c4ccc5[nH]c(=O)[nH]c5c4)c3c2)cc1 [Example 188]
- IC50: 0.1 to 1 µM

SMILES: O=c1[nH]c2ccc(-n3nnc4cnc(-c5ccnn5Cc5ccc(F)cn5)cc43)cc2[nH]1 [Example 189]
- IC50: 0.1 to 1 µM

SMILES: O=c1[nH]c2ccc(-n3ncc4ncc(-c5ccnn5Cc5ccc(Cl)cc5Cl)cc43)cc2[nH]1 [Example 190]
- IC50: 0.1 to 1 µM

SMILES: O=c1[nH]c2ccc(-n3nnc4c(F)cc(-c5ccnn5Cc5ccc(Cl)cc5F)cc43)cc2[nH]1 [Example 191]
- IC50: 0.1 to 1 µM

SMILES: O=c1[nH]c2ccc(-n3nnc4c(F)cc(-c5ccnn5Cc5ccc(Cl)c(F)c5)cc43)cc2[nH]1 [Example 192]
- IC50: 0.1 to 1 µM

SMILES: O=c1[nH]c2ccc(-n3nnc4cnc(-c5ccnn5Cc5ccc(Cl)cc5F)cc43)cc2[nH]1 [Example 193]
- IC50: 0.1 to 1 µM

SMILES: O=c1[nH]c2ccc(-n3nnc4cnc(-c5ccnn5Cc5ccc(Cl)c(F)c5)cc43)cc2[nH]1 [Example 194]
- IC50: 0.1 to 1 µM

SMILES: O=c1[nH]c2ccc(-n3nnc4c(F)cc(-c5ccnn5Cc5ccc6cn[nH]c6c5)cc43)cc2[nH]1 [Example 195]
- IC50: 0.1 to 1 µM

SMILES: O=c1[nH]c2ccc(-n3nnc4cnc(-c5ccnn5-c5cccc(F)c5)cc43)cc2[nH]1 [Example 196]
- IC50: > 1 µM

SMILES: N#Cc1cccc(-n2nccc2-c2cc3c(cn2)nnn3-c2ccc3[nH]c(=O)[nH]c3c2)c1 [Example 197]
- IC50: > 1 µM

SMILES: N#Cc1cccc(-n2nccc2-c2cc(F)c3nnn(-c4ccc5[nH]c(=O)[nH]c5c4)c3c2)c1 [Example 198]
- IC50: > 1 µM

SMILES: O=c1[nH]c2ccc(-n3nnc4c(Cl)cc(-c5ccnn5Cc5ccc(F)cn5)cc43)cc2[nH]1 [Example 200]
- IC50: 0.1 to 1 µM

SMILES: O=c1[nH]c2ccc(-n3nnc4c(F)cc(-c5ccnn5Cc5ccccn5)cc43)cc2[nH]1 [Example 201]
- IC50: > 1 µM

SMILES: O=c1[nH]c2ccc(-n3nnc4c(F)cc(-c5ccnn5CCOc5ccccc5)cc43)cc2[nH]1 [Example 202]
- IC50: > 1 µM
